Activity calls are given as the source filed them. No cut-off for these calls is given here.
Experiments:
[1] = Zinc ionophore activity assessed as uptake of zinc ions into liposomes by measuring increase in liposome-encapsulated FluoZin3-fluorescence at 10 uM measured after 1 hr in presence of ZnCl2 by fluorescence analysis relative to control
[2] = Zinc ionophore activity assessed as uptake of zinc ions into liposomes by measuring increase in liposome-encapsulated FluoZin3-fluorescence at 10 uM measured after 1 hr in presence of ZnCl2 and TPEN by fluorescence analysis
H9c2 [3] = test: (§1) Inhibition of apoptosis in hypoxia/reoxygenation induced injury in rat H9c2 cells assessed as viable cells at 10 uM treated after 8 hrs of hypoxia and before 2 hrs of reoxygenation period in presence of ZnCl2 by AnnexinV-FITC/propidium iodide staining based flow cytometry analysis (reference value: 55.35%); type: functional; conditions: read-out: Activity
H9c2 [4] = test: (§2) Inhibition of apoptosis in hypoxia/reoxygenation induced injury in rat H9c2 cells assessed as late necrotic cells at 10 uM treated after 8 hrs of hypoxia and before 2 hrs of reoxygenation period by AnnexinV-FITC/propidium iodide staining based flow cytometry analysis (reference value: 1.25%); type: functional; parameters: scale not given: the % may be the effect or the level left
H9c2 [5] = test: as §1, with “early apoptotic” for “viable”, “36.45%)” for “55.35%)”; type: functional; parameters: scale not given: the % may be the effect or the level left
H9c2 [6] = test: (§3) Inhibition of apoptosis in hypoxia/reoxygenation induced injury in rat H9c2 cells assessed as late apoptotic cells at 10 uM treated after 8 hrs of hypoxia and before 2 hrs of reoxygenation period by AnnexinV-FITC/propidium iodide staining based flow cytometry analysis (reference value: 7%); type: functional; parameters: scale not given: the % may be the effect or the level left
H9c2 [7] = test: as §3, with “period in presence of ZnCl2” for “period”; type: functional; parameters: scale not given: the % may be the effect or the level left
H9c2 [8] = test: Cardioprotective activity against hypoxia/reoxygenation-induced injury in rat H9c2 cells assessed as cell viability at 10 uM treated after 8 hrs of hypoxia and before 16 hrs of reoxygenation period in presence of ZnCl2 by MTT assay; type: functional; conditions: read-out: Activity
H9c2 [9] = test: Inhibition of apoptosis in hypoxia/reoxygenation induced injury in rat H9c2 cells assessed as viable cells at 10 uM treated after 8 hrs of hypoxia and before 2 hrs of reoxygenation period by AnnexinV-FITC/propidium iodide staining based flow cytometry analysis (reference value: 55.35%); type: functional; conditions: read-out: Activity
H9c2 [10] = test: as §2, with “as” for “as late”, “period in presence of ZnCl2” for “period”; type: functional; parameters: scale not given: the % may be the effect or the level left
H9c2 [11] = test: Cardioprotective activity in rat H9c2 cells assessed as reduction in hypoxia/reoxygenation-induced intracellular Zn2+ level depletion by measuring improvement in intracellular TSQ fluorescence intensity at 10 uM treated at the onset of 1 hr reoxygenation period in the presence of ZnCl2 by TSQ staining based fluorescence analysis relative to control; type: functional
H9c2 [12] = test: Inhibition of apoptosis in hypoxia/reoxygenation induced injury in rat H9c2 cells assessed as caspase-3 activity at 10 uM treated after 8 hrs of hypoxia and before 16 hrs of reoxygenation period in presence of ZnCl2 (reference value: 187%); type: functional; parameters: scale not given: the % may be the effect or the level left
H9c2 [13] = test: Cardioprotective activity against hypoxia/reoxygenation-induced injury in rat H9c2 cells assessed as cell viability at 10 uM treated after 8 hrs of hypoxia and before 16 hrs of reoxygenation period by MTT assay; type: functional, cell-based
H9c2 [14] = test: Inhibition of apoptosis in hypoxia/reoxygenation induced injury in rat H9c2 cells assessed as early apoptotic cells at 10 uM treated after 8 hrs of hypoxia and before 2 hrs of reoxygenation period by AnnexinV-FITC/propidium iodide staining based flow cytometry analysis (reference value: 36.45%); type: functional; parameters: scale not given: the % may be the effect or the level left

SMILES	fold change (FC) [1]	Activity [2]	viability at 10 µM (H9c2 [3]) [%]	Activity (H9c2 [4]) [%]	Activity (H9c2 [5]) [%]	Activity (H9c2 [6]) [%]	Activity (H9c2 [7]) [%]	viability at 10 µM (H9c2 [8]) [%]	viability at 10 µM (H9c2 [9]) [%]	Activity (H9c2 [10]) [%]	fold change (FC) (H9c2 [11])	Activity (H9c2 [12]) [%]	Activity (H9c2 [13])	Activity (H9c2 [14]) [%]
Oc1c(I)cc(Cl)c2cccnc12	40	inactive												
O=C(O[C@@H]1Cc2c(O)cc(O)cc2O[C@@H]1c1ccc(O)c(O)c1)c1cc(O)c(O)c(O)c1 [EPICATECHIN GALLATE]	16	inactive	73.5	1.05	22.8	7.32	2.32	60	54.2	1.42	2.1	139	inactive	37.4
Oc1cc(O)c2c(c1)O[C@H](c1cc(O)c(O)c(O)c1)[C@H](O)C2 [EPIGALLOCATECHIN]	8	inactive	61.8	3.92	26.47	4.77	6.72	52	47	5.05	1	158	inactive	44.27
O=C(O[C@@H]1Cc2c(O)cc(O)cc2O[C@@H]1c1cc(O)c(O)c(O)c1)c1cc(O)c(O)c(O)c1 [EPIGALOCATECHIN GALLATE]	28	inactive	80.1	2.02	16.12	8.12	2.72	78	52.5	0.97	4	112	inactive	37.4
